Each structure is given as a SMILES string.

The target in this assay is T1, VcCA (α-class carbonic anhydrase from Vibrio cholerae) (Vibrio cholerae, UniProt Q9KMP6).
T1 construct: gene VC_A0274
T1 sequence (Q9KMP6 21-239 limits assumed): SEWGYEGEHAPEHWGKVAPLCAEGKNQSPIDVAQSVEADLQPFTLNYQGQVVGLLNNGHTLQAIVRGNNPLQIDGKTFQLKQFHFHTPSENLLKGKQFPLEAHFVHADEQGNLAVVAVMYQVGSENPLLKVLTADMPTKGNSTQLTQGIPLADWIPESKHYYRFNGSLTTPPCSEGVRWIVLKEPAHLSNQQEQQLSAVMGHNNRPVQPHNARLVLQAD
Nature of the assay: stopped-flow CO2 hydration assay, Cheng-Prusoff. In kind it is biochemical. As to conditions: read-out: KI * (nM) / VcCA; CO2 substrate, pH 7.4, 10 mM Hepes, 0.1 M NaClO4, 25 °C, 15 min pre-incubation.
In the case of `NS(=O)(=O)c1ccc2[nH]c(C(=O)NN=C3CCCC3)c(-c3ccccc3)c2c1` [compound 16, 16 (R/R1 = cyclopentyl)], the Ki is 68 nM.
In the case of `NS(=O)(=O)c1ccc2[nH]c(C(=O)NN=Cc3cccnc3)c(-c3ccccc3)c2c1` [compound 7, 7 (R = H, R1 = pyridin-3-yl)] it was 74.2 nM.
As for `CC(C)(C)C1CCC(=NNC(=O)c2[nH]c3ccc(S(N)(=O)=O)cc3c2-c2ccccc2)CC1` (stereo not shown) [compound 22, 22 (R/R1 = 4-tert-butylcyclohexyl)], the Ki came out at 34.1 nM.
As for `C=NNC(=O)c1[nH]c2ccc(S(N)(=O)=O)cc2c1-c1ccccc1` [compound 10, 10 (R = H, R1 = H)], the figure is 46.6 nM; as for `NS(=O)(=O)c1ccc2[nH]c(C(=O)NN=Cc3ccncc3)c(-c3ccccc3)c2c1` [compound 8, 8 (R = H, R1 = pyridin-4-yl)], 72.1 nM.
On to `NS(=O)(=O)c1ccc2[nH]c(C(=O)NN=C3CCC(c4ccccc4)CC3)c(-c3ccccc3)c2c1` (stereo not shown) [compound 21, 21 (R/R1 = 4-phenylcyclohexyl)], for which the Ki was found to be 52.1 nM.
In the case of `NS(=O)(=O)c1ccc2[nH]c(C(=O)NN=Cc3c[nH]c4ccccc34)c(-c3ccccc3)c2c1` [compound 9, 9 (R = H, R1 = indol-3-yl)] it was 60.5 nM; in that of `NS(=O)(=O)c1ccc2[nH]c(C(=O)NN=C3CCCCC3)c(-c3ccccc3)c2c1` [compound 17, 17 (R/R1 = cyclohexyl)], 81.4 nM.
As for `CC(C)=NNC(=O)c1[nH]c2ccc(S(N)(=O)=O)cc2c1-c1ccccc1` [compound 12, 12 (R = CH3, R1 = CH3)], the figure is 22.8 nM; as for `CCCC1CCC(=NNC(=O)c2[nH]c3ccc(S(N)(=O)=O)cc3c2-c2ccccc2)CC1` (stereo not shown) [compound 20, 20 (R/R1 = 4-propylcyclohexyl)], 67.5 nM.
`CC(CC(C)C)=NNC(=O)c1[nH]c2ccc(S(N)(=O)=O)cc2c1-c1ccccc1` [compound 15, 15 (R = CH3, R1 = isobutyl)]: the Ki was 79.6 nM.
As to `CCC1CCC(=NNC(=O)c2[nH]c3ccc(S(N)(=O)=O)cc3c2-c2ccccc2)CC1` (stereo not shown) [compound 19, 19 (R/R1 = 4-ethylcyclohexyl)], the Ki is 62.1 nM.
As for `CC1CCC(=NNC(=O)c2[nH]c3ccc(S(N)(=O)=O)cc3c2-c2ccccc2)CC1` (stereo not shown) [compound 18, 18 (R/R1 = 4-methylcyclohexyl)], the Ki turned out to be 71.4 nM.
As for `NS(=O)(=O)c1ccc2[nH]c(C(=O)NN=Cc3cccs3)c(-c3ccccc3)c2c1` [compound 4, 4 (R = H, R1 = thiophen-2-yl)], the figure is 80.4 nM.
For the compound `NS(=O)(=O)c1ccc2[nH]c(C(=O)NN=C3CCN(Cc4ccccc4)CC3)c(-c3ccccc3)c2c1` [compound 24, 24 (R/R1 = 1-benzylpiperidin-4-yl)], the Ki was 92.4 nM.
Take `Cn1cccc1C=NNC(=O)c1[nH]c2ccc(S(N)(=O)=O)cc2c1-c1ccccc1` [compound 6, 6 (R = H, R1 = 1-CH3-pyrrol-2-yl)]: the Ki is 74.1 nM.
In the case of `CN1CCC(=NNC(=O)c2[nH]c3ccc(S(N)(=O)=O)cc3c2-c2ccccc2)CC1` [compound 23, 23 (R/R1 = 1-methylpiperidin-4-yl)] it was 25.2 nM.
Consider `CC=NNC(=O)c1[nH]c2ccc(S(N)(=O)=O)cc2c1-c1ccccc1` [compound 11, 11 (R = H, R1 = CH3)], for which the Ki came to 27.1 nM.
For `NS(=O)(=O)c1ccc2[nH]c(C(=O)NN=Cc3ccc(Br)s3)c(-c3ccccc3)c2c1` [compound 5, 5 (R = H, R1 = 5-Br-thiophen-2-yl)], the Ki worked out at 94.8 nM.

Source of the values: article PMC7247680, “Novel Indole-Based Hydrazones as Potent Inhibitors of the α-class Carbonic Anhydrase from Pathogenic Bacterium Vibrio cholerae” (International Journal of Molecular Sciences, 2020).
